# Where two headings read alike, the source gives them in different places.
# Key:
# [1] = High Throughput (HT) Metabolic Stability Panel, mouse liver microsomes
# Procedure: (§1) Each compound was tested in duplicate.
# [2] = system: human breast carcinoma cell line MDA-MB-157; assay: Human tumor xenograft model in mice: MDA-MB-157; assay type: in vivo; conditions: for Antitumor Activity MDA-MB-157 (% TGI): oral, QD × 15, 10 Day-on-2 Day-off
# [3] = High Throughput (HT) Metabolic Stability Panel, human liver microsomes
# Procedure: as §1
# human tumor xenografts = assay: Human Tumor Xenograft Models in Mice (various tumors); assay type: in vivo; conditions: for antitumor activity: oral administration (PO); for Antitumor Activity (% TGI): PO, QD × 15, 10 day-on-2 day-off, 5-10 mg/kg/adm
# Notch 1 = assay: Notch-CBF1 Transactivation Assay (Notch 1); assay type: cell-based
# Excerpt: (§2) Table 12 denotes respective DNA quantity for the transfections.
# (§3) Duplicates were used for each sample.
# [4] = system: TALL1 Human T-cell acute lymphoblastic leukemia; assay: Human tumor xenograft model in mice: TALL1; assay type: in vivo; conditions: for Antitumor Activity TALL1 (LCK): oral, QD × 15, 10 Day-on-2 Day-off
# [5] = system: MDA-MB-468 Human Breast Carcinoma; assay: Human tumor xenograft model in mice: MDA-MB-468 (combination with paclitaxel); assay type: in vivo; conditions: for Antitumor Activity MDA-MB-468 (% TGI): oral, QD × 15, 10 Day-on-2 Day-off; for Tumor Growth Delay / Tumor Growth Delay (LCK): target tumor size 500 mg
# Notch 3 = assay: Notch-CBF1 Transactivation Assay (Notch 3); assay type: cell-based
# Excerpt: as §2, §3
# [6] = system: ALL-SIL T-cell lymphoblastic leukemia; assay: Human tumor xenograft model in mice: ALL-SIL (combination with dasatinib); assay type: in vivo; conditions: for Tumor Growth Delay / Tumor Growth Delay (LCK): target tumor size 1000 mg
# [7] = system: human T-ALL leukemia xenografts HPB-ALL; assay: Human tumor xenograft model in mice: HPB-ALL (combination with dexamethasone); assay type: in vivo; conditions: for Tumor Growth Delay / Tumor Growth Delay (LCK): target tumor size 3000 mg
# [8] = system: ER receptor positive human breast carcinoma xenograft MCF7; assay: Human tumor xenograft model in mice: MCF7 (combination with Tamoxifen); assay type: in vivo; conditions: for Tumor Growth Inhibition TGI: target tumor size 500 mg
# [9] = system: human ovarian teratocarcinoma xenograft PA-1; assay: Human tumor xenograft model in mice: PA-1 (combination with carboplatin); assay type: in vivo
# [10] = 0.5 μM compound, mouse liver microsomes, 10 min incubation
# [11] = 0.5 μM compound, human liver microsomes, 10 min incubation
# [12] = read-out: Notch 1 (IC50), HeLa cells, luciferase, rounded to 2 digits
# [13] = read-out: Notch 3 (IC50), HeLa cells, luciferase, rounded to 2 digits
# [14] = Example 1 3.75 mg/kg PO, QD x 3, weekly x 7
# [15] = Example 1 […] PO, QD x 3, weekly x 7
# [16] = Example 1 3.75 mg/kg PO, QD x 3, weekly x 3
# [17] = Example 1 […] PO, QD x 3, weekly x 3
# [18] = Example 1 3.75 mg/kg PO, QD ×3, weekly ×3
# [19] = Example 1 1 mg/kg PO, QD x 21, target tumor size 500 mg
# [20] = Tamoxifen 20 mg/kg IP, Q2D × 10
# [21] = Dexamethasone 3.75 mg/kg IP, QD x 14
# [22] = Paclitaxel 12 mg/kg IV, Q7D x 6
smiles,measurement,setting,value
"NC(=O)[C@@H](CCC(F)(F)F)[C@@H](CCC(F)(F)F)C(=O)N[C@H]1N=C(c2ccccc2)c2ccccc2NC1=O [Example 2, (2R,3S)—N-((3S)-2-Oxo-5-phenyl-2,3-dihydro-1H-1,4-benzodiazepin-3-yl)-2,3-bis(3,3,3-trifluoropropyl)succinamide]",0.5 μM MsLM (% Remaining),[1]; [10],86%
same,Antitumor Activity MDA-MB-157 (% TGI),[2]; 24 mg/kg,85 % TGI
same,0.5 μM HLM (% Remaining),[3]; [11],88%
same,antitumor activity,human tumor xenografts,showed antitumor activity
same,IC50,Notch 1; [12],1.7 nM
same,Antitumor Activity TALL1 (LCK),[4]; 24 mg/kg,2.4 LCK
same,Antitumor Activity MDA-MB-468 (% TGI),"[5]; single agent, 24 mg/kg",87 % TGI
same,IC50,Notch 3; [13],3.3 nM
"CN1C(=O)[C@@H](NC(=O)[C@H](CCC(F)(F)F)[C@H](CCC(F)(F)F)C(N)=O)N=C(c2ccccc2)c2ccccc21 [Example 1, (2R,3S)—N-((3S)-1-Methyl-2-oxo-5-phenyl-2,3-dihydro-1H-1,4-benzodiazepin-3-yl)-2,3-bis(3,3,3-trifluoropropyl)succinamide]",0.5 μM MsLM (% Remaining),"[1]; mouse, microsomes, 10 min, 0.5 µM, pH 7.4",91%
same,CR (%),[6]; [14],0%
same,PR (%),[6]; [14],0%
same,Tumor Growth Delay,[6]; [14],8.7 days
same,Tumor Growth Delay (LCK),[6]; [14],0.5 LCK
same,Tumor Growth Delay,[6]; [15],1.9 days
same,Tumor Growth Delay (LCK),[6]; [15],0.1 LCK
same,complete response (CR),[6]; single agent,none of the single agent produced CR
same,CR (%),[7]; [16],0%
same,PR (%),[7]; [16],0%
same,Tumor Growth Delay,[7]; [16],7.8 days
same,Tumor Growth Delay (LCK),[7]; [16],0.9 LCK
same,Tumor Growth Delay,[7]; [17],9.5 days
same,Tumor Growth Delay (LCK),[7]; [17],1.1 LCK
same,antitumor efficacy (LCK),[7]; Example 1 as a single agent at 7.5 mpk,1.1 LCK
same,Antitumor Activity MDA-MB-157 (% TGI),[2]; 7.5-10 mg/kg,89 % TGI
same,Antitumor Activity (% TGI),"[2]; MDA-MB157, TN breast cancer, PO, QD × 15, 10 day-on-2 day-off, 5-10 mg/kg/adm",81 % TGI
same,0.5 μM HLM (% Remaining),"[3]; human, microsomes, 10 min, 0.5 µM, pH 7.4",97%
same,Antitumor Activity (% TGI),"human tumor xenografts; BT-474, HER2+ breast cancer",96 % TGI
same,Antitumor Activity (% TGI),"human tumor xenografts; Calu-6, Non small cell lung cancer",81 % TGI
same,Antitumor Activity (% TGI),"human tumor xenografts; G292, osteogenic sarcoma",75 % TGI
same,Antitumor Activity (% TGI),"human tumor xenografts; HCT116, colon cancer",75 % TGI
same,Antitumor Activity (% TGI),"human tumor xenografts; MCF7i, estrogen-independent breast cancer",63 % TGI
same,Antitumor Activity (% TGI),"human tumor xenografts; Pat-21/Abx R, TN breast cancer (abx R)",73 % TGI
same,Antitumor Activity (% TGI),"human tumor xenografts; Pat-24, pancreatic cancer",111 % TGI
same,Antitumor Activity (% TGI),"human tumor xenografts; Pat-26, pancreatic cancer",93 % TGI
same,Antitumor Activity (% TGI),"human tumor xenografts; Pat-34, ovarian cancer",89 % TGI
same,Antitumor Activity (% TGI),"human tumor xenografts; Pat-50, ovarian cancer",91 % TGI
same,Antitumor Activity (% TGI),"human tumor xenografts; SK-N-AS, neuroblastoma",67 % TGI
same,Antitumor Activity (% TGI),"human tumor xenografts; U-87, glioblastoma multiforme (GBM)",82 % TGI
same,antitumor activity,human tumor xenografts,showed antitumor activity
same,human cancer xenografts in which significant antitumor activity was demonstrated,human tumor xenografts; xenografts grown in mice,16
same,IC50,"Notch 1; HeLa cells, luciferase, rounded to 2 digits, read-out: Notch 1 (IC50)",1.6 nM
same,Antitumor Activity TALL1 (LCK),[4]; 7.5-10 mg/kg,>4.7 LCK
same,Antitumor Activity (% TGI),"[4]; TALL1, T-Cell acute lymphoblastic leukemia, PO, QD × 15, 10 day-on-2 day-off, 5-10 mg/kg/adm",112 % TGI
same,antitumor activity,"[4]; intravenous route (IV), FIG. 6: TALL1, 5 mg/kg/adm, QD×3, IV",exhibited antitumor activity
same,CR (%),[5]; [14],0%
same,PR (%),[5]; [14],0%
same,Tumor Growth Delay,[5]; [14],7.8 days
same,Tumor Growth Delay (LCK),[5]; [14],0.5 LCK
same,Tumor Growth Delay,[5]; [15],21.2 days
same,Tumor Growth Delay (LCK),[5]; [15],1.4 LCK
same,Antitumor Activity (% TGI),"[5]; MDA-MB468, TN breast cancer, single agent, PO, QD × 15, 10 day-on-2 day-off, 5-10 mg/kg/adm",91 % TGI
same,Antitumor Activity MDA-MB-468 (% TGI),"[5]; single agent, 7.5-10 mg/kg",78 % TGI
same,IC50,"Notch 3; HeLa cells, luciferase, rounded to 2 digits, read-out: Notch 3 (IC50)",3.4 nM
same,CR (%),[8]; [18],0%
same,PR (%),[8]; [18],0%
same,Tumor Growth Inhibition TGI,[8]; [18],43%
same,Tumor Growth Inhibition TGI,"[8]; Example 1 […] PO, QD ×3, weekly ×3",58%
same,Antitumor Activity (% TGI),"[8]; MCF7, estrogen-dependent breast cancer, single agent, PO, QD × 15, 10 day-on-2 day-off, 5-10 mg/kg/adm",73 % TGI
same,CR or PR,[8]; single agent,no CR or PR
same,CR (%),"[9]; Example 1 1 mg/kg PO, QD x 21",0%
same,Cure (%),"[9]; Example 1 1 mg/kg PO, QD x 21",0%
same,PR (%),"[9]; Example 1 1 mg/kg PO, QD x 21",0%
same,Tumor Growth Delay,[9]; [19],4 days
same,Tumor Growth Delay (LCK),[9]; [19],0.2 LCK
same,antitumor effect (LCK),"[9]; Example 1 as a single agent, 1 mg/kg/adm",0.2 LCK
"CC/C(=C(\c1ccccc1)c1ccc(OCCN(C)C)cc1)c1ccccc1 [Tamoxifen, reference compound]",CR (%),[8]; [20],0%
same,PR (%),[8]; [20],0%
same,Tumor Growth Inhibition TGI,[8]; [20],78%
same,% TGI,"[8]; Tamoxifen at MTD dose of 20 mg/kg/adm, IP, Q2 DX12",78%
same,CR or PR,[8]; single agent,no CR or PR
"N.N.O=C([O-])C1(C(=O)[O-])CCC1.[Pt+2] [Carboplatin, carboplatin, reference compound]",antitumor effect (LCK),"[9]; carboplatin weekly, 90 mg/kg/adm",2.1 LCK
"C[C@@H]1C[C@H]2[C@@H]3CCC4=CC(=O)C=C[C@]4(C)[C@@]3(F)[C@@H](O)C[C@]2(C)[C@@]1(O)C(=O)CO [Dexamethasone, dexamethasone, reference compound]",CR (%),[7]; [21],0%
same,PR (%),[7]; [21],0%
same,Tumor Growth Delay,[7]; [21],5.6 days
same,Tumor Growth Delay (LCK),[7]; [21],0.6 LCK
same,Tumor Growth Delay,"[7]; Dexamethasone […] IP, QD x 14",5.8 days
same,Tumor Growth Delay (LCK),"[7]; Dexamethasone […] IP, QD x 14",0.7 LCK
same,antitumor efficacy (LCK),[7]; dexamethasone as a single agent at its MTD of 7.5 mpk,0.7 LCK
"CN1C(=O)[C@@H](NC(=O)[C@H](CCC(F)(F)F)[C@H](CCC(F)(F)F)C(N)=O)N=C(c2ccccc2)c2ccc(F)cc21 [Example 8, (2R,3S)—N-((3S)-8-fluoro-1-methyl-2-oxo-5-phenyl-2,3-dihydro-1H-1,4-benzodiazepin-3-yl)-2,3-bis(3,3,3-trifluoropropyl)succinamide]",0.5 μM MsLM (% Remaining),[1]; [10],100%
same,0.5 μM HLM (% Remaining),[3]; [11],96%
same,IC50,Notch 1; [12],4.9 nM
same,IC50,Notch 3; [13],8.1 nM
"CC(=O)O[C@H]1C(=O)[C@@]2(C)[C@H]([C@H](OC(=O)c3ccccc3)[C@]3(O)C[C@H](OC(=O)[C@H](O)[C@@H](NC(=O)c4ccccc4)c4ccccc4)C(C)=C1C3(C)C)[C@]1(OC(C)=O)CO[C@@H]1C[C@@H]2O [Paclitaxel, paclitaxel, reference compound]",CR (%),[5]; [22],0%
same,PR (%),[5]; [22],0%
same,Tumor Growth Delay,[5]; [22],7.8 days
same,Tumor Growth Delay (LCK),[5]; [22],0.5 LCK
same,antitumor effect (LCK),"[5]; paclitaxel weekly, 12 mg/kg/adm",0.5 LCK
"Cc1nc(Nc2ncc(C(=O)Nc3c(C)cccc3Cl)s2)cc(N2CCN(CCO)CC2)n1 [Dasatinib, dasatinib, reference compound]",CR (%),"[6]; Dasatinib 10 mg/kg PO, QD x 49",0%
same,PR (%),"[6]; Dasatinib 10 mg/kg PO, QD x 49",0%
same,Tumor Growth Delay,"[6]; Dasatinib 10 mg/kg PO, QD x 49",30.2 days
same,Tumor Growth Delay (LCK),"[6]; Dasatinib 10 mg/kg PO, QD x 49",1.7 LCK
same,antitumor effect (LCK),"[6]; dasatinib alone, 10 mg/kg/adm, QD×49, PO",1.7 LCK
